According to PubChem BioAssay (NCI):
“And” between values parts separate entries of the source, which are not always exact repeats. Identical values can stand only once.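 Five concentrations, 48 hours, 96-well plates. The concentration for 50% growth inhibition is given as GI50. TGI: concentration producing complete growth inhibition.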

Tests used:
Assay in all cases: NCI-60 cell line screen, 48 h
[1] = test system: LOX IMVI melanoma
[2] = test system: SNB-75 CNS
[3] = test system: K-562 leukemia
[4] = test system: NCI-H226 lung
[5] = test system: CAKI-1 renal
[6] = test system: UO-31 renal
[7] = test system: UACC-257 melanoma
[8] = test system: RXF 393 renal
[9] = test system: SK-MEL-2 melanoma
[10] = test system: CCRF-CEM leukemia

Compound | TGI [1] | TGI [2] | TGI [3] | TGI [4] | TGI [5] | TGI [6] | TGI [7] | TGI [8] | TGI [9] | TGI [10] | GI50 [4] | GI50 [5] | GI50 [7] | GI50 [8] | GI50 [1] | GI50 [2] | GI50 [3] | GI50 [6] | GI50 [9] | GI50 [10]
CCCCn1cc(C(=O)O)c(=O)c2c3sccc3ccc21 | > 100 µM | > 100 µM | > 100 µM | > 100 µM | > 100 µM | 50 µM | > 100 µM | > 100 µM | > 100 µM | > 100 µM |  |  |  |  |  |  |  |  |  | 
O=C1CSC2(CC(/C=C/C=C/c3ccccc3)=NN2c2cccc(S(=O)(=O)O)c2)N1c1nc2ccccc2s1 (stereo not drawn) | 42.2 µM | > 100 µM | > 100 µM | > 100 µM | > 100 µM | > 100 µM | > 100 µM | > 100 µM | > 100 µM | 58.4 µM |  |  |  |  |  |  |  |  |  | 
CN(C)CCCn1c2ccccc2c2cnccc21 | 52.6 µM | > 100 µM | > 100 µM | 59.7 µM | > 100 µM | 47.9 µM | 39.3 µM | > 100 µM | > 100 µM | > 100 µM |  |  |  |  |  |  |  |  |  | 
C/C(=N\N=C(N)N)c1c(C(=O)OCCCCCCOC(=O)c2nc3sccn3c2/C(C)=N/N=C(N)N)nc2sccn12 | > 100 µM | > 100 µM | 50.1 µM | > 100 µM | > 100 µM | > 100 µM | > 100 µM | > 100 µM | > 100 µM | 63.2 µM |  |  |  |  |  |  |  |  |  | 
CCCCC[C@H](O)[C@H](C)C=C1SCCCS1 | > 100 µM | > 100 µM | > 100 µM | > 100 µM | > 100 µM | > 100 µM | > 100 µM | > 100 µM | > 100 µM | > 100 µM |  |  |  |  |  |  |  |  |  | 
O=C1c2ccccc2S(=O)(=O)c2ccccc21 | > 100 µM | > 100 µM | > 100 µM | > 100 µM | > 100 µM | > 100 µM | > 100 µM | > 100 µM | > 100 µM | > 100 µM |  |  |  |  |  |  |  |  |  | 
O=C1c2ccccc2NC2C(O)c3ccccc3N12 (stereo not drawn) | > 100 µM | > 100 µM | > 100 µM | > 100 µM | > 100 µM | > 100 µM | 37.7 µM | > 100 µM | > 100 µM | 54.6 µM |  |  |  |  |  |  |  |  |  | 
O=C(c1cccs1)N(C(=S)N1CCN(c2ccccc2)CC1)c1ccccc1 | > 100 µM | > 100 µM | > 100 µM | > 100 µM | > 100 µM | > 100 µM | > 100 µM | > 100 µM | > 100 µM | > 100 µM |  |  |  |  |  |  |  |  |  | 
O=[N+]([O-])c1ccc2nc3ccc([N+](=O)[O-])cn3c2c1 | > 100 µM | > 100 µM | > 100 µM | > 100 µM | 89.2 µM | > 100 µM | > 100 µM | > 100 µM | > 100 µM | > 100 µM |  |  |  |  |  |  |  |  |  | 
CCCCCCCCCCCCCCCCP(=O)(O)OP(=O)(O)OCC1OC(n2ccc(N)nc2=O)C(O)C1O (stereo not drawn) | > 100 µM | 60.6 µM and 45.8 µM | > 100 µM | > 100 µM and 78.9 µM | > 100 µM | > 100 µM and 28 µM | > 100 µM | > 100 µM and 41.1 µM | > 100 µM | > 100 µM and 21.4 µM | 64.5 µM and 21.6 µM | 75.8 µM and 11.9 µM | > 100 µM and 41.8 µM | 62.6 µM and 19.8 µM |  |  |  |  |  | 
Oc1ccc2ccccc2c1-c1nnc(CCCCCCCCc2nnc(-c3c(O)ccc4ccccc34)o2)o1 | 25 µM and > 100 µM | 25 µM and > 100 µM | 25 µM and > 57.5 µM | 29.6 µM | 3.11 µM | 19.2 µM and 15.4 µM | 25 µM and > 100 µM | 7.93 µM and 31.8 µM | 25 µM and > 100 µM | > 60.3 µM |  | 0.698 µM | 2.26 µM | 1.39 µM | 0.437 µM | 27.2 µM | 1.68 µM | 0.93 µM | 4.88 µM | 
COc1cn2c(cc1=O)COc1ccc(-c3ccccc3)cc1-2 | > 85.5 µM | > 100 µM | > 100 µM | > 100 µM | > 100 µM | > 100 µM | > 87.1 µM | > 100 µM | > 100 µM | > 100 µM |  |  |  |  |  |  |  |  |  | 40.2 µM
CC1(C)OC[C@@H](/C=C\CCO[Si](c2ccccc2)(c2ccccc2)C(C)(C)C)N1C(=O)c1ccccc1 | 28.6 µM | > 100 µM | 52.1 µM | 25.5 µM | > 100 µM | 36.5 µM | 24.1 µM | 27.9 µM | 19.6 µM | 59.7 µM |  |  |  |  |  |  |  |  |  | 
O=C1c2cc(Cl)ccc2-n2c(noc2=O)C2CSCN12 (stereo not drawn) | > 100 µM | > 100 µM | > 100 µM | > 100 µM | > 100 µM | > 100 µM | > 100 µM | > 100 µM | > 100 µM | > 100 µM |  |  |  |  |  |  |  |  |  | 
O=c1oc2ccccc2cc1-c1nc2ccc([N+](=O)[O-])cc2o1 | > 100 µM | > 100 µM | > 100 µM | > 100 µM | > 100 µM | > 100 µM | > 100 µM | > 100 µM | > 100 µM | > 100 µM |  |  |  |  |  |  |  |  |  | 
CCCCCCCCCCCCOC1C(COCCN2CCCC2)OC2OC(C)(C)OC21 (stereo not drawn) | 2.77 µM | 3.75 µM | 2.7 µM | 7.62 µM | 3.04 µM | 2.96 µM | 3.14 µM | 3.17 µM | 3.09 µM | 5.39 µM |  |  |  |  |  |  |  |  |  | 

Compound | TGI [1] | TGI [2] | TGI [3] | TGI [4] | TGI [5] | TGI [6] | TGI [7] | TGI [8] | TGI [9] | TGI [10] | GI50 [4] | GI50 [5] | GI50 [7] | GI50 [8] | GI50 [1] | GI50 [2] | GI50 [3] | GI50 [6] | GI50 [9] | GI50 [10]
CC1=NN(c2nc(N)nc(/C(C#N)=C/c3ccncc3)n2)C(C)(C)C1 | > 100 µM | > 100 µM | 37.9 µM | > 100 µM | > 100 µM | > 100 µM | > 100 µM | > 100 µM | > 100 µM | > 100 µM |  |  |  |  |  |  |  |  |  | 
COC(=O)Cc1c(C2=Nc3ccccc3C2(O)CC(=O)OC)[nH]c2ccccc12 (stereo not drawn) | > 100 µM | > 100 µM | > 100 µM | > 100 µM | 71 µM | > 100 µM | > 100 µM | > 100 µM | > 100 µM | 54.5 µM |  |  |  |  |  |  |  |  |  | 
CCCCN(CCCC)C(=NCc1ccccc1)NC#N | 30.4 µM | 95.2 µM | 28.3 µM | 64.8 µM | 43.9 µM | 25.3 µM | 67.5 µM | 39.8 µM | 39 µM | 37.1 µM |  |  |  |  |  |  |  |  |  | 
O=C(Nc1cccc2nsnc12)c1cc2c(cc1Cl)Sc1nccn1S2(=O)=O | > 63.8 µM | 35.9 µM | > 44.5 µM | 55.4 µM | 25.7 µM | 4.41 µM | 3.49 µM | 18 µM | 26.4 µM | > 36.6 µM |  |  |  |  |  |  |  |  |  | 
Cc1ccc2c(c1)c(=O)c1c(NCCN(C)C)ccc3nnn2c31 | 4.6 µM | 16.9 µM | 19.6 µM | 10.3 µM | 12.3 µM | 23.9 µM | 14.2 µM | 16.9 µM | 21.1 µM | 17.9 µM |  |  |  |  |  |  |  |  |  | 
CN(C)c1ccc(-c2nc(-c3cc4c(ccc5ccccc54)oc3=O)cs2)cc1 | > 100 µM | > 100 µM | > 100 µM | > 100 µM | > 100 µM | > 100 µM | > 100 µM | > 100 µM | > 100 µM | > 100 µM |  |  |  |  |  |  |  |  |  | 
CSc1c(C(C)=O)c(O)n(-c2ccc(Cl)cc2)c(=O)c1C#N | > 100 µM | > 100 µM | 92.2 µM | > 100 µM | 53.2 µM | 84.6 µM | > 100 µM | > 100 µM | > 100 µM | 54.3 µM |  |  |  |  |  |  |  |  |  | 
O=C(c1ccccc1F)c1c(NCc2ccccc2)c(=O)c1=O | > 100 µM | > 100 µM | > 100 µM | > 100 µM | > 100 µM | > 100 µM | > 100 µM | > 100 µM | > 100 µM | > 100 µM |  |  |  |  |  |  |  |  |  | 
CN(C)c1ccc(C(=NNC(=O)c2cc3ccccc3[nH]2)c2ccc(N(C)C)cc2)cc1 | > 100 µM | 16.9 µM | > 100 µM | > 100 µM | 45.7 µM | > 59.3 µM | > 100 µM | 15 µM | 3.97 µM | > 25.2 µM |  |  |  |  |  |  |  |  |  | 
CCOC(=O)c1cc(-c2ccc(OC)c(OC)c2)c[nH]1 | > 10 µM | > 10 µM | > 10 µM | > 10 µM | > 10 µM | > 10 µM | > 10 µM | > 10 µM | > 10 µM | > 10 µM |  |  |  |  |  |  |  |  |  | 
COc1ccc(/C=N/Nc2[nH]c(=S)nc3[nH]ncc23)cc1 | > 100 µM | > 100 µM | > 100 µM | > 100 µM | > 100 µM | > 100 µM | > 100 µM | > 100 µM | > 100 µM | > 100 µM |  |  |  |  |  |  |  |  |  | 
Oc1c2cccc1Cc1cccc3c1OCCOCCOCCOCCOc1c(cccc1Cc1cccc(c1O)C3)C2 | > 100 µM | 87.3 µM | > 100 µM | 81 µM | > 100 µM | > 100 µM | > 100 µM | > 100 µM | > 100 µM | > 100 µM |  |  |  |  |  |  |  |  |  | 
CN(C)c1ccc(/C=C(\NC(=O)c2ccccc2)C(=O)Nc2ccccc2C(=O)NN2C(=O)CSC2c2ccc(N(C)C)cc2)cc1 (stereo not drawn) | > 100 µM | > 100 µM | > 100 µM | > 100 µM | > 100 µM | > 100 µM | 32.2 µM | > 100 µM | > 100 µM | > 100 µM |  |  |  |  |  |  |  |  |  | 
N#Cc1c(=O)c2cccnc2n2c1[nH]c1ccccc12 | > 100 µM | > 100 µM | > 100 µM | > 100 µM | > 100 µM | > 100 µM | > 100 µM | > 100 µM | > 100 µM | > 100 µM |  |  |  |  |  |  |  |  |  | 
Cc1[nH]c(=O)nc(N/N=C/c2ccc(Cl)c(Cl)c2)c1C(=O)Nc1ccc(Cl)c(Cl)c1 | > 57 µM | 35.3 µM | > 100 µM | > 52.2 µM | 33.3 µM | > 56.2 µM | > 41 µM | 32.7 µM | 49.9 µM | > 23 µM |  |  |  |  |  |  |  |  |  | 
CCOC(=O)c1c2c(n(C)c1-c1ccccc1)C(=O)C(C)=CC2=O | 13.2 µM | 28.8 µM | > 33.2 µM | 24.9 µM | 28.1 µM | 26.6 µM | 7.03 µM | 23.6 µM | 31.1 µM | 7.98 µM |  |  |  |  |  |  |  |  |  | 
